Laboratory results reported in patent publication US20150010928A1, “MEANS AND METHODS FOR ASSESSING AN ENDOCRINE DISEASE OR DISORDER” (priority 2012, published 2015).
Marks after values point to notes of the source that are not given here.

Test system: male rats
Assay: Plasma metabolite profiling (GC-MS, LC-MS, SPE-LC-MS) in male rats dosed once daily over 28 days (OECD 407)
Format: in vivo, rat
Details: high dose; for 3-Methoxytyrosine / 3-O-Methylsphingosine (d18:1) / 5-O-Methylsphingosine (d18:1) / Androstenedione / Arachidonic acid (C20:cis[5,8,11,14]4) / Behenic acid (C22:0) / Cholesterol / Cysteine / Dodecanol / Eicosanoic acid (C20:0) / Galactose, lipid fraction / Glycerol phosphate, lipid fraction / Histidine / Indole-3-lactic acid / Lignoceric acid (C24:0) / Nervonic acid (C24:cis[15]1) / Noradrenaline (Norepinephrine) / Phosphate, lipid fraction / Phosphatidylcholine (C18:0, C18:2) / Phosphatidylcholine (C18:0, C20:3) / Phosphatidylcholine (C18:0, C22:6) / Phosphatidylcholine (C18:0,C18:1) / Phytosphingosine / Stearic acid (C18:0) / Testosterone / Threonine / Tricosanoic acid (C23:0) / Tryptophan / alpha-Tocopherol / beta-Sitosterol / dihomo-gamma-Linolenic acid (C20:cis[8,11,14]3) / erythro-Sphingosine (d18:1) / myo-Inositol-2-phosphate, lipid fraction / threo-Sphingosine (d18:1): Table 11a; for 3-Hydroxybutyrate / 4-Hydroxy-3-methoxyphenylglycol (HMPG) / 18-Hydroxy-11-deoxycorticosterone / 21-Hydroxyprogesterone (11-Deoxycorticosterone) / Citrate / Coenzyme Q9 / Coenzyme Q10 / Corticosterone / Metanephrine / Palmitoleic acid (C16:cis[9]1) / Phosphatidylcholine (C16:0, C16:0) / Progesterone / trans-4-Hydroxyproline: Table 11b; for 3-Hydroxybutyrate, ratio versus control / 18-Hydroxy-11-deoxycorticosterone, ratio versus control / Ceramide (d18:1, C24:1), ratio versus control / Coenzyme Q10, ratio versus control / Corticosterone, ratio versus control / Metanephrine, ratio versus control / Tricosanoic acid (C23:0), ratio versus control / alpha-Tocopherol, ratio versus control / trans-4-Hydroxyproline, ratio versus control: male rats, plasma
Outline: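 Metabolites were measured by GC-MS (derivatised) and reversed-phase LC-MS, with steroids by online SPE-LC-MS, in plasma drawn from fasted rats on days 7, 14 and 28 of once-daily dosing (5/sex/group). Values are ratios versus sex-matched untreated controls, normalized to pool samples, with Welch-test p-values.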

CC(=O)O[C@]1(C(C)=O)CC[C@H]2[C@@H]3C=C(Cl)C4=CC(=O)[C@@H]5C[C@@H]5[C@]4(C)[C@H]3CC[C@@]21C [Cyproteron Acetate]
3-Methoxytyrosine (m7): 1.37 * | 3-O-Methylsphingosine (d18:1) (m7): 1.73 * | 5-O-Methylsphingosine (d18:1) (m7): 1.83 * | Androstenedione (m7): 4.65^ | Arachidonic acid (C20:cis[5,8,11,14]4) (m7): 1.35 * | Behenic acid (C22:0) (m7): 1.38 * | Cholesterol (m7): 1.33 * | Cysteine (m7): 1.3 * | Dodecanol (m7): 1.26 * | Eicosanoic acid (C20:0) (m7): 1.06^ | Galactose, lipid fraction (m7): 1.37 * | Glycerol phosphate, lipid fraction (m7): 1.57 * | Histidine (m7): 1.39 * | Indole-3-lactic acid (m7): 1.13 * | Lignoceric acid (C24:0) (m7): 1.46 * | Nervonic acid (C24:cis[15]1) (m7): 1.69 * | Noradrenaline (Norepinephrine) (m7): 1.61 * | Phosphate, lipid fraction (m7): 1.32 * | Phosphatidylcholine (C18:0, C18:2) (m7): 1.04 * | Phosphatidylcholine (C18:0, C20:3) (m7): 1.03^ | Phosphatidylcholine (C18:0, C22:6) (m7): 1.31 * | Phosphatidylcholine (C18:0,C18:1) (m7): 1.09 * | Phytosphingosine (m7): 1.05^ | Stearic acid (C18:0) (m7): 1.44 * | Testosterone (m7): 3.32^ | Threonine (m7): 1.78 * | Tricosanoic acid (C23:0) (m7): 1.48 * | Tryptophan (m7): 1.1 * | alpha-Tocopherol (m7): 1.22 * | beta-Sitosterol (m7): 2.11 * | dihomo-gamma-Linolenic acid (C20:cis[8,11,14]3) (m7): 1.66 * | erythro-Sphingosine (d18:1) (m7): 1.68 * | myo-Inositol-2-phosphate, lipid fraction (m7): 1.65 * | threo-Sphingosine (d18:1) (m7): 1.39 * | 3-Hydroxybutyrate (m7): 0.58 * | 4-Hydroxy-3-methoxyphenylglycol (HMPG) (m7): 1.11^ | 18-Hydroxy-11-deoxycorticosterone (m7): 0.03 * | 21-Hydroxyprogesterone (11-Deoxycorticosterone) (m7): 0.3 * | Citrate (m7): 1.24^ | Coenzyme Q9 (m7): 0.58 * | Coenzyme Q10 (m7): 0.49 * | Corticosterone (m7): 0.04 * | Metanephrine (m7): 0.91^ | Palmitoleic acid (C16:cis[9]1) (m7): 0.88 * | Phosphatidylcholine (C16:0, C16:0) (m7): 0.78 * | Progesterone (m7): 0.4 * | trans-4-Hydroxyproline (m7): 0.53 * | 3-Methoxytyrosine (m14): 1.81 * | 3-O-Methylsphingosine (d18:1) (m14): 2.19 * | 5-O-Methylsphingosine (d18:1) (m14): 2.18 * | Androstenedione (m14): 3.8 * | Arachidonic acid (C20:cis[5,8,11,14]4) (m14): 2.03 * | Behenic acid (C22:0) (m14): 1.52 * | Cholesterol (m14): 1.63 * | Cysteine (m14): 1.28 * | Dodecanol (m14): 1.71 * | Eicosanoic acid (C20:0) (m14): 1.15 | Galactose, lipid fraction (m14): 2.57 * | Glycerol phosphate, lipid fraction (m14): 2.05 * | Histidine (m14): 1.17 | Indole-3-lactic acid (m14): 1.15 * | Lignoceric acid (C24:0) (m14): 1.78 * | Nervonic acid (C24:cis[15]1) (m14): 2.55 * | Noradrenaline (Norepinephrine) (m14): 1.22 | Phosphate, lipid fraction (m14): 1.8 * | Phosphatidylcholine (C18:0, C18:2) (m14): 1.04 | Phosphatidylcholine (C18:0, C20:3) (m14): 1.16 * | Phosphatidylcholine (C18:0, C22:6) (m14): 1.5 * | Phosphatidylcholine (C18:0,C18:1) (m14): 1.48 * | Phytosphingosine (m14): 1.23 * | Stearic acid (C18:0) (m14): 2.3 * | Testosterone (m14): 2.63 * | Threonine (m14): 2.58 * | Tricosanoic acid (C23:0) (m14): 1.3 * | Tryptophan (m14): 1.11 * | alpha-Tocopherol (m14): 1.32 * | beta-Sitosterol (m14): 2.16 * | dihomo-gamma-Linolenic acid (C20:cis[8,11,14]3) (m14): 2.78 * | erythro-Sphingosine (d18:1) (m14): 1.92 * | myo-Inositol-2-phosphate, lipid fraction (m14): 2.78 * | threo-Sphingosine (d18:1) (m14): 2 * | 3-Hydroxybutyrate (m14): 0.73 * | 4-Hydroxy-3-methoxyphenylglycol (HMPG) (m14): 0.99^ | 18-Hydroxy-11-deoxycorticosterone (m14): 0.01 * | 21-Hydroxyprogesterone (11-Deoxycorticosterone) (m14): 0.41 * | Citrate (m14): 0.73 * | Coenzyme Q9 (m14): 0.74 * | Coenzyme Q10 (m14): 0.86^ | Corticosterone (m14): 0.01 * | Metanephrine (m14): 0.66 * | Palmitoleic acid (C16:cis[9]1) (m14): 0.74 * | Phosphatidylcholine (C16:0, C16:0) (m14): 0.87 * | Progesterone (m14): 0.54 * | trans-4-Hydroxyproline (m14): 0.44 * | 3-Methoxytyrosine (m28): 2.05 * | 3-O-Methylsphingosine (d18:1) (m28): 2.98 * | 5-O-Methylsphingosine (d18:1) (m28): 2.54 * | Androstenedione (m28): 0.94^ | Arachidonic acid (C20:cis[5,8,11,14]4) (m28): 2.35 * | Behenic acid (C22:0) (m28): 1.57 * | Cholesterol (m28): 1.97 * | Cysteine (m28): 1.54 * | Dodecanol (m28): 1.52 * | Eicosanoic acid (C20:0) (m28): 1.71 * | Galactose, lipid fraction (m28): 1.68 * | Glycerol phosphate, lipid fraction (m28): 2.16 * | Histidine (m28): 1.37 * | Indole-3-lactic acid (m28): 1.15 * | Lignoceric acid (C24:0) (m28): 1.9 * | Nervonic acid (C24:cis[15]1) (m28): 2.83 * | Noradrenaline (Norepinephrine) (m28): 1.39 * | Phosphate, lipid fraction (m28): 1.86 * | Phosphatidylcholine (C18:0, C18:2) (m28): 1.03^ | Phosphatidylcholine (C18:0, C20:3) (m28): 1.18 * | Phosphatidylcholine (C18:0, C22:6) (m28): 1.67 * | Phosphatidylcholine (C18:0,C18:1) (m28): 1.55* | Phytosphingosine (m28): 1.68 * | Stearic acid (C18:0) (m28): 2.71 * | Testosterone (m28): 0.56^ | Threonine (m28): 1.73 * | Tricosanoic acid (C23:0) (m28): 1.39 * | Tryptophan (m28): 1.14 * | alpha-Tocopherol (m28): 1.44 * | beta-Sitosterol (m28): 2.6 * | dihomo-gamma-Linolenic acid (C20:cis[8,11,14]3) (m28): 4.01 * | erythro-Sphingosine (d18:1) (m28): 2.2 * | myo-Inositol-2-phosphate, lipid fraction (m28): 3.26 * | threo-Sphingosine (d18:1) (m28): 2.13 * | 3-Hydroxybutyrate (m28): 0.68 * | 4-Hydroxy-3-methoxyphenylglycol (HMPG) (m28): 0.82 * | 18-Hydroxy-11-deoxycorticosterone (m28): 0 * | 21-Hydroxyprogesterone (11-Deoxycorticosterone) (m28): 0.01 * | Citrate (m28): 0.81 | Coenzyme Q9 (m28): 0.59 * | Coenzyme Q10 (m28): 0.7 * | Corticosterone (m28): 0 * | Metanephrine (m28): 0.58 * | Palmitoleic acid (C16:cis[9]1) (m28): 1.42 * | Phosphatidylcholine (C16:0, C16:0) (m28): 0.79 * | Progesterone (m28): 0.03 * | trans-4-Hydroxyproline (m28): 0.52 * | 3-Hydroxybutyrate, ratio versus control (day 7): 0.58 * | 18-Hydroxy-11-deoxycorticosterone, ratio versus control (day 7): 0.08 * | Ceramide (d18:1, C24:1), ratio versus control (day 7): 1 | Coenzyme Q10, ratio versus control (day 7): 0.49 * | Corticosterone, ratio versus control (day 7): 0.04 * | Metanephrine, ratio versus control (day 7): 0.91 | Tricosanoic acid (C23:0), ratio versus control (day 7): 1.48 * | alpha-Tocopherol, ratio versus control (day 7): 1.22 * | trans-4-Hydroxyproline, ratio versus control (day 7): 0.53 * | 3-Hydroxybutyrate, ratio versus control (day 14): 0.73 * | 18-Hydroxy-11-deoxycorticosterone, ratio versus control (day 14): 0.08 * | Ceramide (d18:1, C24:1), ratio versus control (day 14): 1.47 * | Coenzyme Q10, ratio versus control (day 14): 0.86 | Corticosterone, ratio versus control (day 14): 0.01 * | Metanephrine, ratio versus control (day 14): 0.66 * | Tricosanoic acid (C23:0), ratio versus control (day 14): 1.3 * | alpha-Tocopherol, ratio versus control (day 14): 1.32 * | trans-4-Hydroxyproline, ratio versus control (day 14): 0.44 * | 3-Hydroxybutyrate, ratio versus control (day 28): 0.68 * | 18-Hydroxy-11-deoxycorticosterone, ratio versus control (day 28): 0.02 * | Ceramide (d18:1, C24:1), ratio versus control (day 28): 2.22 * | Coenzyme Q10, ratio versus control (day 28): 0.7 * | Corticosterone, ratio versus control (day 28): 0 * | Metanephrine, ratio versus control (day 28): 0.58 * | Tricosanoic acid (C23:0), ratio versus control (day 28): 1.39 * | alpha-Tocopherol, ratio versus control (day 28): 1.44 * | trans-4-Hydroxyproline, ratio versus control (day 28): 0.52 *
